Values joined by “and” are separate entries in the source; they are usually repeats but may differ in a detail not shown here. Identical values can stand only once. After the bases stand the sugars from the 5' end (letter, count) and the backbone: PS all phosphorothioate, else s phosphorothioate and o phosphodiester by linkage. Methylation of C is not given here. e = 2'-O-(2-methoxyethyl) (MOE); k = constrained ethyl (cEt); d = 2'-deoxy (DNA)
Molecular target: IRF4
Conditions: ASO

CTTTGAGGCTGCGAAG (sugars k3 d10 k3, PS)
target mRNA inhibition (MM.1R, 1 µM): 2%

CTTTGATGAGCAGATC (sugars k3 d10 k3, PS)
target mRNA inhibition (SK-MEL-28, 4 µM): 12%

CTTTTTTGGCTCCCTC (sugars k4 d8 k4, PS)
target mRNA inhibition (MM.1R, 0.074 µM): -3% | target mRNA inhibition (MM.1R, 0.222 µM): -3% | target mRNA inhibition (MM.1R, 0.666 µM): 9% | target mRNA inhibition (MM.1R, 2 µM): 25% | target mRNA inhibition (SK-MEL-28, 0.185 µM): 4% and 9% and 8% | target mRNA inhibition (SK-MEL-28, 4 µM): 46% | target mRNA inhibition (SK-MEL-28, 5 µM): 45% and 42% and 62% | target mRNA inhibition (SK-MEL-28, 15 µM): 63% and 68% and 81%

GAAAACTCTAACCCTA (sugars k3 d10 k3, PS)
target mRNA inhibition (SK-MEL-28, 4 µM): 9%

GAAAAGAGCCGCCACA (sugars k3 d10 k3, PS)
target mRNA inhibition (SK-MEL-28, 4 µM): 7%

GAAACAGAGACGCGGT (sugars k3 d10 k3, PS)
target mRNA inhibition (SK-MEL-28, 4 µM): 1%

GAAACCCTCATCACCG (sugars k3 d10 k3, PS)
target mRNA inhibition (MM.1R, 1 µM): -38%

GAAACGAGTTGACACA (sugars k3 d10 k3, PS)
target mRNA inhibition (MM.1R, 1 µM): 0%

GAAAGAGGCACCCTCC (sugars k3 d10 k3, PS)
target mRNA inhibition (SK-MEL-28, 4 µM): 19%

GAAATATACCAGCTCA (sugars k3 d10 k3, PS)
target mRNA inhibition (SK-MEL-28, 4 µM): 61%

GAAATGAACCCTAAGT (sugars k3 d10 k3, PS)
target mRNA inhibition (MM.1R, 1 µM): -5%

GAAATGGAGCATCCGC (sugars k3 d10 k3, PS)
target mRNA inhibition (SK-MEL-28, 4 µM): 32%

GAAATGTCAAACCCTA (sugars k3 d10 k3, PS)
target mRNA inhibition (SK-MEL-28, 4 µM): 71%

GAACACACCAGGTTAA (sugars k3 d10 k3, PS)
target mRNA inhibition (SK-MEL-28, 4 µM): -2%

GAACGCACGGACGAAC (sugars k3 d10 k3, PS)
target mRNA inhibition (SK-MEL-28, 4 µM): 18%

GAAGAATAAACACCCC (sugars k3 d10 k3, PS)
target mRNA inhibition (SK-MEL-28, 4 µM): 52%

GAAGAGATCAGCTGCC (sugars k3 d10 k3, PS)
target mRNA inhibition (SK-MEL-28, 4 µM): 42%

GAAGCATTTTATCATC (sugars k3 d10 k3, PS)
target mRNA inhibition (MM.1R, 1 µM): 4%

GAAGCATTTTATCATC (sugars kkddddddddddkeke, PS)
target mRNA inhibition (MM.1R, 1 µM): -7%

GAAGCATTTTATCATC (sugars kkdddddddddekeke, PS)
target mRNA inhibition (MM.1R, 1 µM): 6%

GAAGCATTTTATCATC (sugars kkdddddddddkdkdk, PS)
target mRNA inhibition (MM.1R, 1 µM): 1%

GAAGGATGATCAGCTT (sugars k3 d10 k3, PS)
target mRNA inhibition (SK-MEL-28, 4 µM): 26%

GAAGTTTACACTGGAT (sugars e1 k2 d9 k2 e2, PS)
target mRNA inhibition (MM.1R, 1 µM): 48%

GAAGTTTACACTGGAT (sugars k3 d9 k3 e1, PS)
target mRNA inhibition (MM.1R, 1 µM): 45%

GAAGTTTACACTGGAT (sugars k3 d10 k3, PS)
target mRNA inhibition (SK-MEL-28, 4 µM): 65%

GAAGTTTACACTGGAT (sugars kddddddddddkekek, PS)
target mRNA inhibition (MM.1R, 1 µM): 27%

GAAGTTTACACTGGAT (sugars kkkddddddddkekek, PS)
target mRNA inhibition (MM.1R, 1 µM): 52%

GAATAGAGGAATGGCG (sugars k3 d10 k3, PS)
target mRNA inhibition (SK-MEL-28, 4 µM): 39%

GAATAGGAAGATATCA (sugars k3 d10 k3, PS)
target mRNA inhibition (SK-MEL-28, 4 µM): 6%

GAATAGGACCCCTATC (sugars k3 d10 k3, PS)
target mRNA inhibition (MM.1R, 1 µM): -3%

GAATTTCAGGAGCTAG (sugars k3 d10 k3, PS)
target mRNA inhibition (SK-MEL-28, 4 µM): 61%

GAATTTCCATTGGAGG (sugars k3 d10 k3, PS)
target mRNA inhibition (SK-MEL-28, 4 µM): 43%

GACAAGTGCTAGGATT (sugars k3 d10 k3, PS)
target mRNA inhibition (SK-MEL-28, 4 µM): 61%

GACACTTTTAGAGAGG (sugars e1 k2 d9 k2 e2, PS)
target mRNA inhibition (MM.1R, 1 µM): 24%

GACACTTTTAGAGAGG (sugars k3 d9 k3 e1, PS)
target mRNA inhibition (MM.1R, 1 µM): 24%

GACACTTTTAGAGAGG (sugars kkdddddddddkekek, PS)
target mRNA inhibition (MM.1R, 1 µM): 17%

GACACTTTTAGAGAGG (sugars kkkdddddddddkeke, PS)
target mRNA inhibition (MM.1R, 1 µM): 24%

GACAGAAGATCTCTAC (sugars k3 d10 k3, PS)
target mRNA inhibition (SK-MEL-28, 4 µM): 17%

GACAGAGAGTCCGACG (sugars k3 d10 k3, PS)
target mRNA inhibition (SK-MEL-28, 4 µM): -1%

GACAGATGGCATGCGA (sugars k3 d10 k3, PS)
target mRNA inhibition (MM.1R, 1 µM): 16%

GACAGCATAGCATTAT (sugars k3 d10 k3, PS)
target mRNA inhibition (SK-MEL-28, 4 µM): 72% and 77%

GACAGTGACTTGCATC (sugars k2 d9 e3 k2, PS)
target mRNA inhibition (MM.1R, 1 µM): 24%

GACAGTGACTTGCATC (sugars k3 d10 k3, PS)
target mRNA inhibition (MM.1R, 1 µM): 24%

GACAGTGACTTGCATC (sugars kkdddddddddekeke, PS)
target mRNA inhibition (MM.1R, 1 µM): 30%

GACATACCTACAAGCA (sugars k3 d10 k3, PS)
target mRNA inhibition (SK-MEL-28, 4 µM): 50%

GACATTACTAGATTGT (sugars k3 d10 k3, PS)
target mRNA inhibition (SK-MEL-28, 4 µM): 70%

GACCACGCCCCTCTCC (sugars k3 d10 k3, PS)
target mRNA inhibition (SK-MEL-28, 4 µM): 55%

GACCAGCTTTTTCAAA (sugars k3 d10 k3, PS)
target mRNA inhibition (SK-MEL-28, 4 µM): 38%

GACCATCTGATCCGGA (sugars k3 d10 k3, PS)
target mRNA inhibition (MM.1R, 1 µM): 2%

GACCTTTACTTCATTC (sugars k3 d10 k3, PS)
target mRNA inhibition (SK-MEL-28, 4 µM): 52%

GACGAAAACAGCCGCC (sugars k3 d10 k3, PS)
target mRNA inhibition (SK-MEL-28, 4 µM): 62%

GACTAACTCTCCTGTT (sugars k3 d10 k3, PS)
target mRNA inhibition (SK-MEL-28, 4 µM): 17%

GACTATTAGATAAGTA (sugars k3 d10 k3, PS)
target mRNA inhibition (SK-MEL-28, 4 µM): 29%

GACTTAACCCACATCA (sugars k3 d10 k3, PS)
target mRNA inhibition (SK-MEL-28, 4 µM): -166%

GACTTAATTCTGGGTT (sugars k3 d10 k3, PS)
target mRNA inhibition (SK-MEL-28, 4 µM): 35%

GAGAATTCCAAACCTT (sugars k3 d10 k3, PS)
target mRNA inhibition (MM.1R, 0.0625 µM): 6% | target mRNA inhibition (MM.1R, 0.074 µM): 1% | target mRNA inhibition (MM.1R, 0.222 µM): 13% | target mRNA inhibition (MM.1R, 0.25 µM): 5% | target mRNA inhibition (MM.1R, 0.666 µM): 38% | target mRNA inhibition (MM.1R, 1 µM): 15% | target mRNA inhibition (MM.1R, 2 µM): 69% | target mRNA inhibition (MM.1R, 4 µM): 55% | target mRNA inhibition (SK-MEL-28, 4 µM): 76%

GAGAGCTACGCAATCT (sugars k3 d10 k3, PS)
target mRNA inhibition (SK-MEL-28, 4 µM): 57%

GAGAGTAAACTTGGCT (sugars k3 d10 k3, PS)
target mRNA inhibition (MM.1R, 1 µM): 12%

GAGATAAGAAGCACTG (sugars k3 d10 k3, PS)
target mRNA inhibition (SK-MEL-28, 4 µM): 44%

GAGATACTTGTACTGT (sugars k3 d10 k3, PS)
target mRNA inhibition (MM.1R, 0.0625 µM): -2% | target mRNA inhibition (MM.1R, 0.25 µM): 18% | target mRNA inhibition (MM.1R, 1 µM): 49% and 57% | target mRNA inhibition (MM.1R, 4 µM): 84%

GAGATATAAATAGCTG (sugars k3 d10 k3, PS)
target mRNA inhibition (SK-MEL-28, 4 µM): 51%

GAGCAAATTGAGACCA (sugars k3 d10 k3, PS)
target mRNA inhibition (SK-MEL-28, 4 µM): 55%

GAGCAGAACGAGGTAA (sugars k3 d10 k3, PS)
target mRNA inhibition (SK-MEL-28, 4 µM): 55%

GAGCATCACTATTAAG (sugars k3 d10 k3, PS)
target mRNA inhibition (MM.1R, 1 µM): 14%

GAGCCGCCACATCAGC (sugars k3 d10 k3, PS)
target mRNA inhibition (SK-MEL-28, 4 µM): 23%

GAGCCTGGGACTCAGG (sugars k4 d8 k4, PS)
target mRNA inhibition (SK-MEL-28, 4 µM): 19%

GAGCGGCCGTGGTGAG (sugars k3 d10 k3, PS)
target mRNA inhibition (SK-MEL-28, 4 µM): 41%

GAGGAACTAGTCGACA (sugars k3 d10 k3, PS)
target mRNA inhibition (SK-MEL-28, 4 µM): 39%

GAGGAAGCATAGAACA (sugars k3 d10 k3, PS)
target mRNA inhibition (SK-MEL-28, 4 µM): 18%

GAGGACCACGCCCCTC (sugars k3 d10 k3, PS)
target mRNA inhibition (SK-MEL-28, 4 µM): -3%

GAGGACTTATTTGTGG (sugars k3 d10 k3, PS)
target mRNA inhibition (MM.1R, 1 µM): 22%

GAGGGTCTGGAAACTC (sugars k4 d8 k4, PS)
target mRNA inhibition (SK-MEL-28, 4 µM): 8%

GAGGTAAATCTTCACT (sugars k3 d10 k3, PS)
target mRNA inhibition (SK-MEL-28, 4 µM): 70%

— the OligoGym collection
